# Patent US20160215111A1, “MATERIALS AND METHODS” (THE UNIVERSITY OF SYDNEY, priority 2013, published 2016)
# How the values were obtained:
# [1] = test system: rabbit polyclonal antibody with specificity against the C-terminal RKRK motif of tropoelastin; assay: C-terminal ELISA detection of RKRK exposure; assay type: binding; conditions: for C-terminal ELISA detection: tissue culture plastic, increasing coating concentration (FIG. 13)
# Excerpt: Rabbit polyclonal antibodies against exon 36 were raised by Biomatik. A peptide corresponding to exon 36 ([…]) conjugated to Keyhole Limpet Hemocyanin was used to immunize New Zealand rabbits. Exon 36 specific antibodies were purified from the resulting immune serum by affinity chromatography using the immunogen peptide. […] Therefore this protocol produced a rabbit polyclonal antibody with specificity against the C-terminal RKRK motif of tropoelastin.
# Untreated or PIII treated polystyrene was incubated in peptide 36 containing buffer (10 mM PO4, 150 mM NaCl) of increasing pH for 1 hour at room temperature. After peptide immobilization the samples were washed 3× with PBS to remove non-bound peptide. Background antibody binding was blocked with 3% (w/v) BSA for 1 hour at room temperature. The primary rabbit-anti-C-terminal antibody was diluted to 1:5000 and added to the samples for 1 hour at room temperature. Non-bound antibody was removed with 3×PBS washes then detected with 1:10,000 diluted goat anti-rabbit whole IgG-HRP conjugated secondary antibody for 1 hour at room temperature. The secondary antibody was removed, the samples washed 3×PBS washes and then transferred to fresh tissue culture plates. ABTS solution (40 mM ABTS, 0.1 mM NaOAc, 0.05M NaH2PO4, 0.01% H2O2, pH 5) was added for 30 min and the absorbance read at 405 nm.
# Human dermal fibroblasts [2] = assay: Cell attachment of human dermal fibroblasts to peptide coated polymer samples (crystal violet); assay type: cell-based; conditions: for % cell attachment / maximal % cell attachment: BSA blocked; for cell binding activity after dry autoclaving / cell binding activity after heating: coated at pH 10, 0 mM NaCl; for cell binding activity after dry autoclaving: 120° C., 20 min (FIG. 10); for maximal % cell attachment: coating concentration 50 μM
# Protocol: PFTE and polystyrene were obtained from Goodfellow. PEEK was sourced from Vitrex. […] Human dermal fibroblasts were cultured in a humidified 5% CO2 atmosphere in DMEM (Invitrogen) supplemented with 10% (v/v) fetal calf serum (Invitrogen), and passaged 1 in 10 every 3-4 days. Unless stated otherwise all other reagents were purchased from Sigma.
# Where stated samples were incubated in 2% Tween-20 for 10 min at 70° C. then washed with PBS. Where stated non-specific cell binding was prevented with incubation in 10 mg/ml heat denatured (80° C./10 min) BSA for 1 hour at room temperature. Confluent 75 cm^2 flasks of cells were harvested by trypsinization, and the cell density adjusted to 5×10^5 cells/ml in serum free DMEM. The cells were added to the samples for 60 min at 37° C., 5% CO2 then non-adherent cells were removed with 2×1 PBS washes. Adherent cells were fixed with the addition of 5% glutaraldehyde (w/v) in PBS for 20 min. The samples were washed 3×PBS, and then the cells were stained with 0.1% (w/v) crystal violet in 0.2M MES pH 5.0 for 1 h at room temperature. After washing extensively with dH2O the samples were transferred to fresh tissue culture plates and the crystal violet was solubilised in 10% (v/v) acetic acid. The absorbance was measured at 570 nm using a plate reader. The absorbance was converted to % cell attachment using the equation of a linear regression fit of standard known cell number controls.
# Samples were peptide coated as for cell attachment analysis then washed 3× with PBS. […] The samples were then autoclaved at 120° C., 100 kPa above atmospheric pressure with steam for 20 min. For slow cooled samples the temperature of the autoclave returned to room temperature over a period of 4 hours. The other samples were removed once the autoclave reached 70° C. and were immediately immersed in room temperature PBS. All samples were washed 3× with PBS prior to measuring cell attachment.
# Human dermal fibroblasts [3] = assay: Cell morphology / spreading and patterned cell distribution by phase contrast microscopy; assay type: cell-based
# Protocol: PFTE and polystyrene were obtained from Goodfellow. PEEK was sourced from Vitrex. Peptide 36 ([…]) and peptide 36 short ([…]) were synthesized by Auspep. Recombinant human tropoelastin corresponding to amino acid residues 27-724 of GenBank entry AAC98394 (gi 182020) was expressed and purified as previously described. Human dermal fibroblasts were cultured in a humidified 5% CO2 atmosphere in DMEM (Invitrogen) supplemented with 10% (v/v) fetal calf serum (Invitrogen), and passaged 1 in 10 every 3-4 days. Unless stated otherwise all other reagents were purchased from Sigma.
# Samples were contact or shadow masked during PIII treatment by layering 3 mm wide low contact ADH kapton tape (contact mask) (Associated Gaskets, Australia) or a 130 μm stainless steel plate (shadow mask) (Mastercut Technologies, Australia) over the sample during PIII treatment. The masks were removed immediately after treatment.
# Samples were peptide 36 coated, BSA blocked and cell seeded as for cell attachment. After incubation for 90 min the cells were fixed with the addition of 37% (w/v) formaldehyde directly to the cell media to achieve a final concentration of 3% (w/v) for 20 min. For opaque samples the cells were crystal violet stained as for cell attachment. The cell morphology was then observed by phase contrast microscopy.
# [4] = PIII treated polystyrene (FIG. 3A, B)
# [5] = post PIII allylamine vapor treated PTFE (30 min exposure), versus PIII treated PTFE (FIG. 6B)
# [6] = untreated polystyrene (FIG. 3A, B)
# [7] = tape or shadow masked PIII treated polymer (polystyrene, PTFE; FIG. 4)
# [8] = untreated polystyrene (FIG. 3C)
sequence,measurement,setting,value
"ACLGKACG [ΔRKRK peptide 36, peptide 36 where the RKRK motif was deleted]",C-terminal ELISA detection,[1],not capable of detecting
same,cell binding activity,Human dermal fibroblasts [2]; PIII treated PTFE (FIG. 6B),low levels of cell binding activity
same,cell attachment,Human dermal fibroblasts [2]; [4],did not support cell binding
same,cell binding activity,Human dermal fibroblasts [2]; [5],low levels of cell binding activity
same,cell binding activity,Human dermal fibroblasts [2]; untreated PTFE (FIG. 6B),low levels of cell binding activity
same,cell attachment,Human dermal fibroblasts [2]; [6],did not support cell binding
same,cell spreading,Human dermal fibroblasts [3]; PIII treated polystyrene (FIG. 3C),did not elicit cell spreading
same,patterned cell distribution,Human dermal fibroblasts [3]; [7],absence of cell attachment and spreading
same,cell spreading,Human dermal fibroblasts [3]; [8],did not elicit cell spreading
ACLGKACGRKRK [peptide 36],C-terminal ELISA detection of RKRK exposure,"[1]; PIII treated polystyrene, association buffers with pH up to 8 (FIG. 8B)",low levels of peptide 36 RKRK exposure
same,C-terminal ELISA detection of RKRK exposure,"[1]; PIII treated polystyrene, coating concentrations up to 50 μM, 10 mM PO4, 150 mM NaCl, pH 7.4 (FIG. 8A)",little RKRK-dependent antibody detection
same,C-terminal ELISA detection of RKRK exposure,"[1]; PIII treated polystyrene, pH 10 association buffer, compared with untreated polystyrene (FIG. 8B)",not statistically different to those obtained on untreated polystyrene
same,C-terminal ELISA detection,[1],detected
same,C-terminal ELISA detection of RKRK exposure,"[1]; untreated polystyrene, 50 μM peptide, association buffer of increasing pH (FIG. 8B)",detected peptide 36 across the entire range of pH
same,C-terminal ELISA detection of RKRK exposure,"[1]; untreated polystyrene, 10 mM PO4, 150 mM NaCl, pH 7.4, increase up to 10 μM coating, none further at 50 μM (FIG. 8A)",detected peptide 36 bound to the surface in a coating concentration dependent manner
same,% cell attachment,Human dermal fibroblasts [2]; 800 second PIII treated PTFE,4.3±1.8%
same,cell binding activity,Human dermal fibroblasts [2]; PIII treated PTFE (FIG. 6B),low levels
same,cell binding activity,"Human dermal fibroblasts [2]; PIII treated PTFE and PEEK, pH 6 association buffer (FIG. 7C, D)",low levels of cell binding activity
same,cell binding activity,"Human dermal fibroblasts [2]; PIII treated PTFE and PEEK, pH 10 association buffer (FIG. 7C, D)",high levels of cell binding activity
same,cell binding activity after dry autoclaving,Human dermal fibroblasts [2]; PIII treated PTFE,not cell adhesive
same,cell binding activity after heating,"Human dermal fibroblasts [2]; PIII treated PTFE, incubations of 70° C. and above (FIG. 9)",baseline levels of cell binding
same,cell binding activity after liquid autoclaving,"Human dermal fibroblasts [2]; PIII treated PTFE, pH 6, 150 mM NaCl autoclave liquid (FIG. 10A)",reduced to background levels
same,cell binding activity after liquid autoclaving,"Human dermal fibroblasts [2]; PIII treated PTFE, pH 10, 0 mM NaCl autoclave liquid, gradual cooling to room temperature (FIG. 10C)",comparable peptide 36-cell binding activity to the no-autoclave control
same,cell binding activity after liquid autoclaving,"Human dermal fibroblasts [2]; PIII treated PTFE, pH 10, 0 mM NaCl autoclave liquid, rapid cooling (FIG. 10B)",partial peptide 36-cell binding activity was retained
same,cell attachment,Human dermal fibroblasts [2]; [4],not cell adhesive
same,cell binding activity,"Human dermal fibroblasts [2]; PIII treated polystyrene, association buffer pH 10, 150 mM NaCl (FIG. 7B)",maximal cell binding activity
same,cell binding activity,"Human dermal fibroblasts [2]; PIII treated polystyrene, association buffers of up to pH 8, 150 mM NaCl (FIG. 7B)",low levels of cell biding activity
same,maximal % cell attachment,Human dermal fibroblasts [2]; PIII treated polystyrene,5.1±0.5%
same,cell binding activity,"Human dermal fibroblasts [2]; PIII treated surface, 150 mM NaCl association buffer, pH 7.4 (FIG. 7A)",background levels of binding
same,cell binding activity,"Human dermal fibroblasts [2]; PIII treated surface, low ionic strength association buffer, pH 7.4 (FIG. 7A)",high levels of peptide 36-cell binding activity
same,peptide dependent cell attachment,"Human dermal fibroblasts [2]; PTFE, 160 seconds of N2 plasma treatment",background levels
same,% cell attachment,"Human dermal fibroblasts [2]; PTFE, N2 plasma treatments up to 20 seconds before coating",99.3-106.9%
same,cell binding activity,Human dermal fibroblasts [2]; [5],far greater levels of cell binding activity
same,cell binding activity,Human dermal fibroblasts [2]; untreated PTFE (FIG. 6B),high levels of cell binding
same,cell binding activity after dry autoclaving,Human dermal fibroblasts [2]; untreated PTFE,retained
same,cell binding activity after heating,"Human dermal fibroblasts [2]; untreated PTFE, heated above 40° C. (FIG. 9)",not altered
same,cell binding activity after liquid autoclaving,"Human dermal fibroblasts [2]; untreated PTFE, regardless of the liquid buffer conditions (FIG. 10)",lost
same,cell binding activity after heating,"Human dermal fibroblasts [2]; untreated and PIII treated PTFE, heated 10 min up to 40° C. in pH 7.4, 150 mM NaCl (FIG. 9)",remained cell adhesive
same,cell binding activity without autoclaving,"Human dermal fibroblasts [2]; untreated and PIII treated PTFE, coated in pH 10, 0 mM NaCl buffer (FIG. 10)",cell adhesive on both untreated and PIII treated PTFE
same,cell attachment,Human dermal fibroblasts [2]; [6],high levels of cell adhesion
same,cell attachment after Tween-20 washing,"Human dermal fibroblasts [2]; untreated polystyrene, Tween-20 washed",background levels
same,cell binding activity,"Human dermal fibroblasts [2]; untreated polystyrene, 50 μM peptide, 10 mM PO4 pH 7.4, independent of NaCl content of association buffer (FIG. 7A)",high levels of cell-binding activity
same,maximal % cell attachment,Human dermal fibroblasts [2]; untreated polystyrene,98.6±12.5%
same,cell binding activity,"Human dermal fibroblasts [2]; untreated polystyrene, insensitive to pH of association buffer, 150 mM NaCl (FIG. 7B)",high levels of cell binding activity
same,patterned cell distribution,"Human dermal fibroblasts [3]; tape masked PIII treated PTFE, association buffer pH 7.4, 150 mM NaCl (FIG. 11)",retained selectively by peptide 36 on the untreated regions
same,patterned cell distribution,"Human dermal fibroblasts [3]; tape masked PIII treated PTFE, association buffer pH 10, 0 mM NaCl (FIG. 11)",cell binding on both the untreated and PIII treated sections
same,patterned cell distribution,"Human dermal fibroblasts [3]; tape masked PIII treated PTFE, washed with 2% Tween-20 or 5% SDS in pH 10, 0 mM NaCl at 70° C., gradual cooling (FIG. 11)",cell attachment exclusively in the PIII treated regions
same,patterned cell distribution,Human dermal fibroblasts [3]; [7],clearly restricted to the untreated regions
same,cell spreading after Tween-20 washing,"Human dermal fibroblasts [3]; untreated polymer, Tween-20 washed",removed peptide 36 dependent cell spreading activity
same,cell spreading,Human dermal fibroblasts [3]; [8],phase dark and flattened
